The test system of data set [1] is LDL receptor mRNA. Kind of data set: Stimulation of LDL receptor mRNA expression in HepG2 cells (Northern blot). Format: cell-based. The following applies: Homo sapiens, 2 × 10^-6 M, 16 h incubation, 10% fetal calf serum, LDL receptor/β-actin quotient, control=100%. An excerpt: (§1) Using a surrogate system, the present inventors sought to confirm the pharmacological activity of the inventive compounds. Thus, utilizing the human hepatocytoma cell line HepG2, which is recognized on all sides as a model, it was observed that the LDL receptor mRNA levels are increased by the compounds of the formula I (Table I). Even in rat livers, within a few hours the LDL receptor mRNA levels are increased by the compounds of the formula I (Table II). The observed stimulation is in the range from 170 to 350% of the controls (control=100%). Accordingly, an effective amount of an inventive compound can include an amount sufficient to increase CDL receptor levels or reduce plasma lipid levels.
The preparation of the mRNA was carried out according to the method of Chomczynski, P. and Sacchi, N., Anal. Biochem. 162, 156-159 (1987). In organs (such as, for example, liver), the deep-frozen tissue was homogenized on dry ice beforehand in a mortar, and the mRNA was further enriched by means of Oligo dT according to standard methods (cf. Sambrook, J., Fritsch, E. F. and Maniatis, T., Molecular Cloning, second Edition, Cold Spring Harbor (1989); in this collection of methods, there are also descriptions of all further relevant molecular biology standard methods used here). […] The filters were then exposed at -70° C. on Cronex 4 films (Dupont) overnight up to 14 days in the presence of an intensifying screen, and the hybridization signals were quantified using a commercial laser densitometer by means of the film-blackening intensity. The quotient of the intensity of the LDL receptor band and of the actin band was then determined as an internal standard to correct yield variations.
Table I presents the stimulation of the LDL receptor mRNA expression in HepG2 cells by selected compounds of formula I in whole serum (final concentration of the compounds […]) after a 16 h incubation. […] The total mRNA was then prepared, and the relevant LDL receptor mRNA and β-actin mRNA levels were determined by means of the Northern blot technique. […]

Data set [2] deals with LDL receptor mRNA. The experiment in a line: Stimulation of LDL receptor mRNA expression in rat livers after administration (Northern blot). Format: in vivo. As to conditions: rat liver, 6 hours after administration, untreated control=100%.
Text: as §1
The preparation of the mRNA was carried out according to the method of Chomczynski, P. and Sacchi, N., Anal. Biochem. 162, 156-159 (1987). In organs (such as, for example, liver), the deep-frozen tissue was homogenized on dry ice beforehand in a mortar, and the mRNA was further enriched by means of Oligo dT according to standard methods (cf. Sambrook, J., Fritsch, E. F. and Maniatis, T., Molecular Cloning, second Edition, Cold Spring Harbor (1989); in this collection of methods, there are also descriptions of all further relevant molecular biology standard methods used here). Five to […] of the dissolved mRNA thus obtained were denatured according to standard methods and separated on 1% horizontal agarose gels. The mRNA was transferred to Hybond N membranes (Amersham) by means of capillary blot. The specific hybridization probe used was a partial LDL receptor cDNA clone and the internal standard a plasmid which contained a β-actin gene. Both plasmids were labeled by means of a random primer kit from Amersham up to a specific activity of 5×10^9 cpm/μg. Prehybridization, hybridization and washing of the filters were carried out by standard methods. The filters were then exposed at -70° C. on Cronex 4 films (Dupont) overnight up to 14 days in the presence of an intensifying screen, and the hybridization signals were quantified using a commercial laser densitometer by means of the film-blackening intensity. The quotient of the intensity of the LDL receptor band and of the actin band was then determined as an internal standard to correct yield variations.
Liver tissue was removed and shock-frozen in liquid nitrogen. The mRNA was then isolated as described, and the relative LDL receptor mRNA levels were determined by means of the Northern blot technique. The mRNA levels of untreated control animals were set at 100%, and the stimulation of the LDL receptor mRNA in percent of the control was calculated.

Data set [3] can be described thus: Metabolic stability: dealkylation to compound A in in vitro incubations (HPLC). The format is in vitro ADME. As to conditions: human, liver 9000 g fraction, 37° C., R1-dealkylated metabolite, read-out: relative content of compound A. The source says: It is known that compounds of formula I where R^1 =alkyl are degraded in the metabolism to compounds of the formula I where R^1 =H (in the following called compound A). Accordingly, the instant inventors sought to investigate the metabolic fate of our inventive compounds. The following experiments, which can be carried out using intact human hepatocytes or liver extracts, are used to investigate the dealkylation tendency of the compounds of the formula I according to the invention in comparison to 4-amino-2-(4,4-dimethyl-2-oxoimidazolidin-1-yl)pyrimidine-5-N-(ethyl)-N-(3-trifluoromethyl-phenyl)carboxamide hydrochloride (compound of Example 2 from EP 0 557 879--in the following called compound B).
Frozen samples of pieces of human liver stored at -78° C. were thawed by introducing them into a 1.1% strength potassium chloride solution at a temperature of 4° C. […] After thawing, the pieces of liver were prepared by standard processes [A. Y. H. Lu, W. Levin; Biochem. Biophys. Res. Comm. 46, 1339-1344 (1972), P. G. Gervasi et al.; Xenobiotica 12/8, 517 (1982)]. The temperature was kept between 0° and 4° C. during the preparation. The 9000 g fractions of ten human livers were mixed in order to exclude interindividual enzyme differences.
The test substances were dissolved in DMSO at a concentration of about 10 mg/ml. Aliquot parts of this solution were added under sterile conditions to the hepatocyte cultures or the 9000 g fractions. The incubations were carried out at 37° C. in an atmosphere having 5% CO2 and >90% atmospheric humidity. […] NADPH and Mg^2+ were added to the 9000 g fractions as cofactors [P. G. Gervasi et al.; Xenobiotica 12/8, 517 (1982)]. All samples were frozen immediately after incubation and stored at below -20° C. until analysis.
For each species and each time, all incubations with hepatocytes and 9000 g fractions were carried out without addition of a test substance. The samples obtained were used as controls in the chromatographic analysis.
For the quantitative determination of compound A, i.e. the R^1 -dealkylated metabolite, in the in vitro incubation mixtures, […] of each mixture was in each case diluted with […] of bovine serum. These samples were analyzed by the following test for the determination of compound B free base and metabolite compound A free base in serum:
Fifty microliters of the prepared solution of an internal standard (10 μg of a compound of the formula I where R^1 =CH3, R^2, R^3 =H and R^4 =CF3 /ml of methanol), 0.1 ml of sodium acetate buffer (0.4M, pH 5.5) and 5 ml of ethyl ether were added to 0.1 ml of serum. The mixture was shaken for 20 min. After centrifuging, 4 ml of the organic phase were transferred, 3 ml of n-hexane were added and the mixture was extracted with 0.5 ml of 1% strength (v/v) aqueous trifluoroacetic acid. The upper organic layer was aspirated off and discarded. The aqueous residue was evaporated at 40° C. for 30 min. in order to remove residues of the organic solvent. 100 μl of the remaining aqueous phase were injected into the HPLC apparatus. HPLC analysis was carried out on a C18 RP column (TosoHaas Semi-Micro TSK gel ODS 80 TS) using a mobile phase of 800 g of water, 270 g of acetonitrile and 1 ml of trifluoroacetic acid. The flow rate was 0.2 ml/min. The quantitative determination of the analytes was carried out by measuring the peak heights with the aid of a UV detector at γ=240 nm. The calibration range was between 50 and 0.05 μg/ml corresponding to 200 to 0.2 μg/ml in the undiluted in vitro sample. The detection limit was 0.05 μg/ml corresponding to 0.2 μg/ml in the undiluted in vitro sample.

SMILES strings stand for the structures. Structures can show the parent of a compound that is named as a salt.

Consider `CC1(C)CN(c2ncc(C(=O)N(CC(F)(F)F)c3cccc(C(F)(F)F)c3)c(N)n2)C(=O)N1` [Example 1, 4-Amino-2-(4,4-dimethylimidazolidin-2-on-1-yl) pyrimidine-5-N-(2,2,2-trifluoroethyl)-N-[(3-trifluoromethyl)phenyl]carboxamide hydrochloride], for which, in the data set with LDL receptor mRNA [1], the activity at 2 µM was 220%. Besides, the response vs control in vivo at 30 mg/kg in the data set on LDL receptor mRNA [2] came to 220%. Moreover, the metabolised at 0.5 h in data set [3] (incubation time 0.5 h) is below 2%. Also, the metabolised at 1 h in data set [3] (incubation time 1 h) was below 2%. Besides, the metabolised at 2 h in data set [3] (incubation time 2 h) came to 3%. For the same molecule, the metabolised at 3 h in data set [3] (incubation time 3 h) stood at 4%.

Values taken from patent US5773447A, “Compounds for treating disorders of lipid metabolism and their preparation” (Hoechst Aktiengesellschaft, priority 1996, dated 1998).
